The target of this experiment is T1, CFTR (F508del/MF-HBE cells) (Homo sapiens, UniProt P13569, DEL508-508).
T1 construct: human bronchial epithelial (HBE) cells derived from CF subjects heterozygous for F508del and a minimal function CFTR mutation; endogenous in cells; host or cells: primary human bronchial epithelial cells from CF subjects (F508del/MF genotype), differentiated at air-liquid interface
Put plainly: Ussing chamber assay of CFTR-mediated short-circuit currents (potentiator identification). The format is cell-based. To be noted: incubated 18-24 hours at 37° C. with 10 μM (14S)-8-[3-(2-{dispiro[2.0.2.1]heptan-7-yl}ethoxy)-1H-pyrazol-1-yl]-... trione (Compound VII), 20% human serum, read-out: CFTR-modulating activity EC50. The procedure:
Ussing Chamber Assay of CFTR-mediated short-circuit currents
Ussing chamber experiments were performed using human bronchial epithelial (HBE) cells derived from CF subjects heterozygous for F508del and a minimal function CFTR mutation (F508del/MF-HBE) and cultured as previously described (Neuberger T, Burton B, Clark H, Van Goor F Methods Mol Biol 2011:741:39-54). After four days the apical media was removed, and the cells were grown at an air liquid interface for >14 days prior to use.
To isolate the CFTR-mediated short-circuit (ISC) current, F508del/MF-HBE grown on Costar® Snapwell™ cell culture inserts were mounted in an Ussing chamber and the transepithelial ISC was measured under voltage-clamp recording conditions (Vhold=0 mV) at 37° C. The basolateral solution contained (in mM) 145 NaCl, 0.83 K2HPO4, 3.3 KH2PO4, 1.2 MgCl2, 1.2 CaCl2), 10 Glucose, 10 HEPES (pH adjusted to 7.4 with NaOH) and the apical solution contained (in mM) 145 NaGluconate, 1.2 MgCl2, 1.2 CaCl2), 10 glucose, 10 HEPES (pH adjusted to 7.4 with NaOH) and 30 μM amiloride to block the epithelial sodium channel. […] The CFTR-mediated ISC (μA/cm^2) for each condition was determined from the peak forskolin response to the steady-state current following inhibition.
The activity of the CFTR potentiator compounds on the CFTR-mediated ISC was determined in Ussing chamber studies as described above. […]

Molecules are shown by their SMILES. Bounds are passed on as bounds.

T1 sequence (P13569 with tags, fused parts or gaps DEL508-508): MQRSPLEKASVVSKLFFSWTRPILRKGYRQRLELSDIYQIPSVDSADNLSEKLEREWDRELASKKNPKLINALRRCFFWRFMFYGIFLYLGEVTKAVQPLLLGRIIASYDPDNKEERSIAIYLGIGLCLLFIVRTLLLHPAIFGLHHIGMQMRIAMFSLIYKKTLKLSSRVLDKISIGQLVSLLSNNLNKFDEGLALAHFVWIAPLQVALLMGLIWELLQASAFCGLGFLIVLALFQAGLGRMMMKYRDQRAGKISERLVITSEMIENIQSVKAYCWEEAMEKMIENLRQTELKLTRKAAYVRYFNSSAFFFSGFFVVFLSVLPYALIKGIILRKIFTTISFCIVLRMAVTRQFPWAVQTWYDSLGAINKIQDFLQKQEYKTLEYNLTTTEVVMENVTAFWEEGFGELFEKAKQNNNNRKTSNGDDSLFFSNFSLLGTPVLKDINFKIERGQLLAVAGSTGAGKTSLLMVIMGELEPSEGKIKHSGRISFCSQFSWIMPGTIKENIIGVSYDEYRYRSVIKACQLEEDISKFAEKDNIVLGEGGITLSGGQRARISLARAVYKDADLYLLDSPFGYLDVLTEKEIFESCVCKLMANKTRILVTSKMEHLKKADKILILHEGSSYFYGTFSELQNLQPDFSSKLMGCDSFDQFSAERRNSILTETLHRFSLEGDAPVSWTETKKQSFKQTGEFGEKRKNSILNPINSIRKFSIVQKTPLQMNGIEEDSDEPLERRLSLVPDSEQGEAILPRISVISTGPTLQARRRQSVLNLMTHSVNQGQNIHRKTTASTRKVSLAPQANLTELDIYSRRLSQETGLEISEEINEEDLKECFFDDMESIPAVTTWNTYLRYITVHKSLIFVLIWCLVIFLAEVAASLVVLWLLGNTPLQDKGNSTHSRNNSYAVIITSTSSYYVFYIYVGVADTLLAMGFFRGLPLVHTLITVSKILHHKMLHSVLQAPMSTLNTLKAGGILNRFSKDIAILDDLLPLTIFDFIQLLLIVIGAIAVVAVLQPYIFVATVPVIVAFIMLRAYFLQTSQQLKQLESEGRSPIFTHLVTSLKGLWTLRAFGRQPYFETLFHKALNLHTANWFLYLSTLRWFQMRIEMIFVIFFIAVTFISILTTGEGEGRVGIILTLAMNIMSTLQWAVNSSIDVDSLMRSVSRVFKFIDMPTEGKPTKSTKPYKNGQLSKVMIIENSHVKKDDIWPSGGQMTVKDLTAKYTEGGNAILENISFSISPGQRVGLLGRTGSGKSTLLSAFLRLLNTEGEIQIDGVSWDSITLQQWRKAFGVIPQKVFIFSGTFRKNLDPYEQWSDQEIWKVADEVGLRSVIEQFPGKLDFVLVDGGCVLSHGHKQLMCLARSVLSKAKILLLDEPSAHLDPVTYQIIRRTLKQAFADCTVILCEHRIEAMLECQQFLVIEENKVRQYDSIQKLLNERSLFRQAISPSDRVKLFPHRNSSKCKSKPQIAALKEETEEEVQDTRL

For orientation: EC50 means the midpoint of the concentration-response curve. As for `CC1(C)CCCCC[C@](O)(C(F)(F)F)C2=NN=C(O2)c2nc(c(C(F)(F)F)cc2N)N1` [Compound I, (6R)-17-amino-12,12-dimethyl-6,15-bis(trifluoromethyl)-19-oxa-3,4,13,18-tetrazatricyclo[12.3.1.12,5]nonadeca-1(18),2,4,14,16-pentaen-6-ol], the EC50 was below 500 nM.

Source of the values: US20250340568A1, “SOLID FORMS OF A MACROCYCLIC COMPOUNDS AS CFTR MODULATORS AND THEIR PREPARATION” (Vertex Pharmaceuticals Incorporated, priority 2022, published 2025).
